From patent publication US20210038730A1, “PEPTIDE NANOFIBERS” (UNIVERSITY OF PORTSMOUTH HIGHER EDUCATION CORPORATION, priority 2018, published 2021)
Values after ≈ are worked out from the molar mass of the structure shown. Where two headings read alike, the source gives them in different places.

Key:
[1] = Enzymatic stability in rat liver homogenates; conditions: 50% (v/v) rat liver homogenates; analyte in brackets of label
Experimental: (§1) Fresh blood, obtained from adult male Wistar rats, was collected in sterile the 170 I.U. lithium heparin-coated tubes (Vacutainer, BD Bioscience, UK). Blood was centrifuged immediately at 2,000 g for 15 minutes (4° C.) and supernatant was collected and diluted to 50% (v/v) with PBS. Livers and brains were obtained from adult male Wistar rats, and the tissues were blotted to dryness, weighed, sliced into pieces, and homogenised with ice-cold PBS (in 2 mL of buffer g^−1 of tissue) using the glass homogeniser. Then, tissue homogenates were centrifuged at 4,300 g for 1 hour (4° C.) and the supernatants collected. Glioblastoma cell homogenates were prepared using U-87 MG cells. Cells were cultured in Eagle's Minimum Essential Medium (EMEM) supplemented with 10% (v/v) heat-inactivated fetal bovine serum (FBS), 1% (v/v) of non-essential amino acids (NEAA) and 1 mM of sodium pyruvate in T75 flasks with a surface area of 75 cm^2 and maintained in a humidified atmosphere of 5% CO2 at 37° C. Breast cancer cell homogenates were prepared using MDA-MB-231 cells. Cells were cultured in Dulbecco's Modified Eagle Medium (DMEM) supplemented with high levels of glucose (4.5 g/L), 10% (v/v) heat-inactivated fetal bovine serum (FBS), 1% (v/v) of non-essential amino acids (NEAA) and penicillin and streptomycin (500 units/mL) in T75 flasks with a surface area of 75 cm^2 and maintained in a humidified atmosphere of 5% CO2 at 37° C. Media was changed for both cell lines every 3 to 4 days. After reaching confluence, cells were washed twice with Hank's Balanced Salt Solution (HBSS) and incubated with ˜2 mL of TrypLE Enzyme at 37° C. for ˜3 minutes. Then, complete media were added, and cells were centrifuged at 1,000 rpm for 5 minutes in C-28A centrifuge (Boeco, Germany). U-87 MG or MDA-MB-231 cells (˜10×10^6 cells mL^−1) were re-suspended in ice-cold PBS, and homogenised with a 2×5 second pulses with the probe sonicator (UP200S Ultrasonic processor, SciMed, 200 watts, amplitude of 60%). Cell debris were removed by centrifugation at 2,000 rpm for 5 minutes (Jouan B4i, Thermo Scientific, Paisley, UK). Supernatant was collected and stored at −80° C. Total protein concentration in the homogenates was determined using the Bradford assay with bovine serum albumin as a standard. Diluted plasma, tissue or cell homogenates were pre-warmed during ˜30 minutes at 37° C. Peptide stock solutions (Glu-GnRH, goserelin acetate and TPGnRH, 5 mM in PBS, 500 μL) were prepared and added to the homogenate solutions (120 μL). PAX-loaded nanofibers prepared at a ratio of 1:7.36 [PAX:TPGnRH consisting of 3 μmol (2.56 mg mL^−1) of PAX, 22.02 μmol (31.46 mg mL^−1) of TPGnRH], as previously described, and further diluted in PBS to achieve a concentration of 5 mM of TPGnRH and 500 nM of PAX (120 μL) were added to the homogenates. At various time intervals, an aliquot was collected (80 μL) and added to ice-cold ACN (80 μL) to quench the enzymatic activity. Samples were stored at −80° C. for at least 3 hours to maximise protein precipitation. Samples were vortexed for 15 minutes, centrifuged for 15 minutes at 12,000 rpm, and the supernatants were collected and analysed by RP-HPLC.

[2] = Enzymatic stability in MDA-MB-231 cell homogenates
Experimental: as §1

[3] = molecular target: T1, GnRH-R expressed on glioblastoma cells (Homo sapiens, UniProt P30968); experiment: Receptor binding by single molecule force spectroscopy; conditions: for koff: read-out: Dissociation Rate (Koff)
T1 construct: GnRH peptides to the GnRH-R expressed on glioblastoma cells; endogenous in cells; host or cells: U-87 MG, UP-007, UP-029, SEBTA-023 glioblastoma cells (living)
T1 sequence (P30968 1-328): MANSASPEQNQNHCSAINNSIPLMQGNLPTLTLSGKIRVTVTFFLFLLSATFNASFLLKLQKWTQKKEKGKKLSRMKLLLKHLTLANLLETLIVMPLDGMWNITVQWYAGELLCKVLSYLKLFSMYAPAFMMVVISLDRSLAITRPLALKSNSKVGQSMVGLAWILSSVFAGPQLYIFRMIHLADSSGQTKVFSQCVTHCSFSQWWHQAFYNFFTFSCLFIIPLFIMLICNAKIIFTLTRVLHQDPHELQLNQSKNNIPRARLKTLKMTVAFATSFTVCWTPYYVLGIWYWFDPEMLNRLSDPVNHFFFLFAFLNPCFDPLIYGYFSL
Experimental: The binding of the GnRH analogues to GnRH-R was assessed using single molecule force spectroscopy (SMFS) and Topography and Recognition (TREC) imaging based on AFM. AFM tips were functionalised with Glu-GnRH, goserelin acetate and […] as a monomer and nanofibers using a previously described method ^9, 10. Silicon nitride (6-20 pN/nm spring constant, Bruker, Mass., USA) and magnetically coated […] tips (Keysight, Calif., USA) were used for SMFS and TREC studies, respectively. […] Subsequently, acetal groups were converted into aldehyde groups by immersing the tips in a 1% (w/v) citric acid solution for 10 minutes. […] Following an incubation of 2 hours, the free aldehyde groups were inactivated by ethanolamine for 10 minutes. AFM tips were washed with PBS three times and stored at 4° C. […] Loading rates were calculated by multiplying the pulling velocity (v) with the effective spring constant (keff). Spring constants were determined by the thermal-noise method. The force-distance curves were acquired using PicoView 1.12 (Agilent Technologies, Inc., California, USA) and analysed in Matlab 8.1 software (MathWorks, Massachusetts, USA). […] Amplitude-distance curves were collected on a glass coverslip to adjust the free oscillation amplitude, and to determine the optimal amplitude reduction value for driving the feedback loop during the imaging. Free amplitude of cantilever oscillation was 30 nm and the excitation frequency was set to 9 kHz.

[4] = Enzymatic stability in rat plasma; conditions: 50% (v/v) rat plasma
Experimental: (§2) Fresh blood, obtained from adult male Wistar rats, was collected in sterile the 170 I.U. lithium heparin-coated tubes (Vacutainer, BD Bioscience, UK). Blood was centrifuged immediately at 2,000 g for 15 minutes (4° C.) and supernatant was collected and diluted to 50% (v/v) with PBS. Livers and brains were obtained from adult male Wistar rats, and the tissues were blotted to dryness, weighed, sliced into pieces, and homogenised with ice-cold PBS (in 2 mL of buffer g^−1 of tissue) using the glass homogeniser. Then, tissue homogenates were centrifuged at 4,300 g for 1 hour (4° C.) and the supernatants collected. Glioblastoma cell homogenates were prepared using U-87 MG cells. Cells were cultured in Eagle's Minimum Essential Medium (EMEM) supplemented with 10% (v/v) heat-inactivated fetal bovine serum (FBS), 1% (v/v) of non-essential amino acids (NEAA) and 1 mM of sodium pyruvate in T75 flasks with a surface area of 75 cm^2 and maintained in a humidified atmosphere of 5% CO2 at 37° C. Breast cancer cell homogenates were prepared using MDA-MB-231 cells. Cells were cultured in Dulbecco's Modified Eagle Medium (DMEM) supplemented with high levels of glucose (4.5 g/L), 10% (v/v) heat-inactivated fetal bovine serum (FBS), 1% (v/v) of non-essential amino acids (NEAA) and penicillin and streptomycin (500 units/mL) in T75 flasks with a surface area of 75 cm^2 and maintained in a humidified atmosphere of 5% CO2 at 37° C. Media was changed for both cell lines every 3 to 4 days. After reaching confluence, cells were washed twice with Hank's Balanced Salt Solution (HBSS) and incubated with ˜2 mL of TrypLE Enzyme at 37° C. for ˜3 minutes. Then, complete media were added, and cells were centrifuged at 1,000 rpm for 5 minutes in C-28A centrifuge (Boeco, Germany). U-87 MG or MDA-MB-231 cells (˜10×10^6 cells mL^−1) were re-suspended in ice-cold PBS, and homogenised with a 2×5 second pulses with the probe sonicator (UP200S Ultrasonic processor, SciMed, 200 watts, amplitude of 60%). Cell debris were removed by centrifugation at 2,000 rpm for 5 minutes (Jouan B4i, Thermo Scientific, Paisley, UK). Supernatant was collected and stored at −80° C. Total protein concentration in the homogenates was determined using the Bradford assay with bovine serum albumin as a standard. Diluted plasma, tissue or cell homogenates were pre-warmed during ˜30 minutes at 37° C. Peptide stock solutions (Glu-GnRH, goserelin acetate and TPGnRH, 5 mM in PBS, 500 μL) were prepared and added to the homogenate solutions (120 μL). […] Samples were vortexed for 15 minutes, centrifuged for 15 minutes at 12,000 rpm, and the supernatants were collected and analysed by RP-HPLC.

GnRH-R on U-87 MG cells = molecular target: T2, GnRH-R on U-87 MG cells (Homo sapiens, UniProt P30968); experiment: SMFS blocking experiments with free GnRH-R ligands; type: binding
T2 construct: endogenous in cells; host or cells: U-87 MG
T2 sequence (P30968 1-328): T1 sequence (P30968 1-328)
Experimental: Blocking experiments were performed with different GnRH-R ligands (anti-GnRH-R antibody, Glu-GnRH, goserelin acetate, and TPGnRH). U-87 MG cells were analysed with tips functionalised with TPGnRH nanofibers and then the free ligands were added at a final concentration of 1 μg mL^−1 (anti-GnRH-R antibody) or 50 μg mL^−1 (Glu-GnRH, goserelin acetate and TPGnRH). U-87 MG cells treated with ligands were incubated for, at least, one hour at room temperature, and then the same cells were analysed with the same TPGnRH-functionalised tip at the same location in the cell.

[5] = Enzymatic stability in U-87 MG cell homogenates
Experimental: Fresh blood, obtained from adult male Wistar rats, was collected in sterile the 170 I.U. lithium heparin-coated tubes (Vacutainer, BD Bioscience, UK). Blood was centrifuged immediately at 2,000 g for 15 minutes (4° C.) and supernatant was collected and diluted to 50% (v/v) with PBS. Livers and brains were obtained from adult male Wistar rats, and the tissues were blotted to dryness, weighed, sliced into pieces, and homogenised with ice-cold PBS (in 2 mL of buffer g^−1 of tissue) using the glass homogeniser. Then, tissue homogenates were centrifuged at 4,300 g for 1 hour (4° C.) and the supernatants collected. Glioblastoma cell homogenates were prepared using U-87 MG cells. Cells were cultured in Eagle's Minimum Essential Medium (EMEM) supplemented with 10% (v/v) heat-inactivated fetal bovine serum (FBS), 1% (v/v) of non-essential amino acids (NEAA) and 1 mM of sodium pyruvate in T75 flasks with a surface area of 75 cm^2 and maintained in a humidified atmosphere of 5% CO2 at 37° C. Breast cancer cell homogenates were prepared using MDA-MB-231 cells. Cells were cultured in Dulbecco's Modified Eagle Medium (DMEM) supplemented with high levels of glucose (4.5 g/L), 10% (v/v) heat-inactivated fetal bovine serum (FBS), 1% (v/v) of non-essential amino acids (NEAA) and penicillin and streptomycin (500 units/mL) in T75 flasks with a surface area of 75 cm^2 and maintained in a humidified atmosphere of 5% CO2 at 37° C. Media was changed for both cell lines every 3 to 4 days. After reaching confluence, cells were washed twice with Hank's Balanced Salt Solution (HBSS) and incubated with ˜2 mL of TrypLE Enzyme at 37° C. for ˜3 minutes. Then, complete media were added, and cells were centrifuged at 1,000 rpm for 5 minutes in C-28A centrifuge (Boeco, Germany). […] Total protein concentration in the homogenates was determined using the Bradford assay with bovine serum albumin as a standard. […] Samples were vortexed for 15 minutes, centrifuged for 15 minutes at 12,000 rpm, and the supernatants were collected and analysed by RP-HPLC.

[6] = Enzymatic stability in rat brain homogenates; conditions: 50% (v/v) rat brain homogenates
Experimental: as §2

in vitro = conditions: human
Experimental: In order to test the permeability of TPGnRH nanofibers across the blood-brain barrier (BBB), a static contact co-culture was set up according to a previous method^7. Briefly, human astrocytes (SC-1800, 25,000 cells/well) were seeded on the abluminal side of a 24-well plate Transwell polycarbonate membrane (3 μm of a pore size, Corning Star, Deeside, UK) coated with human fibronectin. Cells were allowed to attach for 3 days, and then human brain microvascular endothelial cells (hCMEC/D3, 75,000 cells/well) were seeded on the luminal side of the Transwell and co-cultured with astrocytes for five days with a daily change of the media. Transendothelial resistance was measured using EVOM voltohmmeter (World Precision Instruments, Berlin, Germany).
Transwells were washed with HBSS and immersed into HBSS (600 μL in abluminal side). […] Samples (100 μL) were collected from the abluminal side at specific time-points, and fresh HBSS (100 μL) was used to replace the volume from the abluminal compartments. […] PAX was analysed using reverse phase-HPLC with the gradient method described on Table 2. TR-TPGnRH was quantified in POLARstar Omega plate reader spectrophotometer with λexc 596 and λem 615 nm. The permeability coefficient (Papp) was determined using the equation: […]
ΔQr, is the flux of drug along time (μg mL^−1), Vr is the volume of the abluminal side (mL), A is the area of the Transwell membrane, C0 is the concentration of drug in the luminal side, and 60, the converser factor from minutes to seconds^8.

[7] = Release from 3D printed cellulose-sodium alginate bioinks; type: physicochemical; conditions: PBS
Experimental: Peptide nanofibers were embedded in cellulose nanocrystals and sodium alginate hydrogels. Cellulose nanocrystals were synthesised by sulphuric acid degradation (45% w/v, 150 mls) of cellulose (15 g, Western Hemlock) at 50° C. over 90 minutes under stirring. Cold-deionised water was used to quench reaction and acid was removed by centrifugation (4,000 rpm, 10 minutes). Cellulose nanocrystals were dialysed (12-14 kDa for cytochrome C, Medicell Ltd) over 5 L with 6 changes over 24 hours. Resulting suspension was probe sonicated (400 watt, 23% amplitude, 10 minutes) in 50 mLs aliquots. The resulting suspension was centrifuged (4,000 rpm, 10 minutes) and supernatant was stored in the refrigerator. Cellulose nanocrystals (CNCs, 4.5% w/w, 2 g) were loaded onto a syringe attached to a three-way valve, where a syringe loaded sodium alginate (6% w/w in 4.6% glucose, 1.7 g). The CNCs were injected in the sodium alginate syringe and mixed 10 times (in each direction). Sample was collected in one syringe and a new syringe containing calcium chloride (0.1M, 0.9 mL). Sample was pushed into calcium chloride and mixed 5 times (in each direction) prior collecting the gel in one syringe and loading in cartridges. Peptide nanofibers (5 mg) were dispersed in 0.9 mL of 0.1M calcium chloride and mixed as above when needed. Release of paclitaxel loaded and TPGnRH gels in PBS (1×, 7.4, 6 mLs) was quantified as per HPLC method described previously (Example 7, Table 2). After an initial burst release, a controlled release profile is observed with gradual slow release over days. Resulting inks can be utilised for the production of nanofiber loaded implants for tumour patients.

physchem = experiment: physchem
Experimental: Paclitaxel (PAX)-loaded TPGnRH nanofibers were prepared by adding a PAX solution (250 μL, 2.562 mg mL^−1 in isopropyl alcohol, IPA) to the dry peptide to achieve a molar ratio of 1:1, 1:1.95, 1:3.68 or 1:7.36 of PAX:TPGnRH. After vortexing, bath and probe sonication (200 watts, amplitude 60%, UP200S Ultrasonic, SciMed, Stockport, UK) for 10 minutes, the IPA was removed by rotary evaporation. The film was re-hydrated in acetate buffer (50 mM, pH 4.5), and the final formulation was centrifuged for 5 minutes at 900 rpm to remove undissolved PAX. Supernatant was collected and the amount of PAX and TPGnRH was quantified by reverse phase-HPLC. […] Morphology of PAX-loaded formulations was evaluated using TEM and AFM, as described above.

[8] = human, MDA-MB-231 breast cancer cell homogenate
[9] = after pre-incubation with the free ligand named as label (antibody 1 μg mL^−1, peptides 50 μg mL^−1)
[10] = before addition of the free ligand named as label (no pre-incubation)

CC(C)C[C@H](NC(=O)CNC(=O)[C@H](Cc1ccc(O)cc1)NC(=O)[C@H](CO)NC(=O)[C@H](Cc1c[nH]c2ccccc12)NC(=O)[C@H](Cc1cnc[nH]1)NC(=O)[C@@H](N)CCC(=O)O)C(=O)N[C@@H](CCCNC(=N)N)C(=O)N1CCC[C@H]1C(=O)NCC(N)=O [Glu-GnRH, Glu-His-Trp-Ser^4-Tyr^5-Gly^6-Leu-Arg-Pro-Gly-NH2, reference compound] showed a Plateau [1] of 16.58 µg/mL, a T1/2α [1] of 0.67 ± 0.03 min and a kα [1] of 1.088 min⁻¹. For the same molecule, the Plateau ([2]; MDA-MB-231 cell homogenates) was 552.9 µg/mL, the k ([2]; MDA-MB-231 cell homogenates) was 0.1551 min⁻¹ and the AUC(0-t) at 4.03 mM [2, 8] was 20000 µg·h/mL. For the same molecule, the C0 at 4.03 mM [2, 8] was 1420 µg/mL, the half-life at 4.03 mM [2, 8] was 4.47 ± 1.27 min and the “Binding Force” value ([3]; SEBTA-023) was 40.3 ± 11.70 pN. The “Binding Probability” value ([3]; SEBTA-023) was 4.93 ± 0.91%, the koff ([3]; SEBTA-023) was 1.22 ± 0.31 s⁻¹ and the “Binding Force” value ([3]; U-87 MG) was 25.88 ± 0.94 pN. For the same molecule, the “Binding Probability” value ([3]; U-87 MG) was 13.3 ± 1.91%, the koff ([3]; U-87 MG) was 1.29 ± 0.34 s⁻¹ and the “Binding Force” value ([3]; UP-007) was 38.20 ± 9.16 pN. The “Binding Probability” value ([3]; UP-007) was 12.84 ± 4.32%, the koff ([3]; UP-007) was 1.52 ± 0.2 s⁻¹ and the “Binding Force” value ([3]; UP-029) was 45.6 ± 4.64 pN. For the same molecule, the “Binding Probability” value ([3]; UP-029) was 6.93 ± 2.96%, the koff ([3]; UP-029) was 1.66 ± 0.25 s⁻¹ and the Plateau [4] was 3.952 µg/mL. For the same molecule, the k ([4]; analyte in brackets of label) was 0.04021 min⁻¹, the “Binding Probability of TPGnRH nanofiber tip to U-87 MG cells” value (“Binding Probability … to U-87 MG cells” for short) (GnRH-R on U-87 MG cells; [9]) was 3.4% and the “Binding Probability … to U-87 MG cells” value (GnRH-R on U-87 MG cells; [10]) was 12.6%. It also gave a Plateau [5] of 3.952 µg/mL, a k ([5]; analyte in brackets of label) of 0.1928 min⁻¹ and a Plateau [6] of 3.952 µg/mL. It also gave a k ([6]; analyte in brackets of label) of 0.1928 min⁻¹.

In the case of CC(C)C[C@H](NC(=O)[C@@H](COC(C)(C)C)NC(=O)[C@H](Cc1ccc(O)cc1)NC(=O)[C@H](CO)NC(=O)[C@H](Cc1c[nH]c2ccccc12)NC(=O)[C@H](Cc1cnc[nH]1)NC(=O)[C@@H]1CCC(=O)N1)C(=O)N[C@@H](CCCNC(=N)N)C(=O)N1CCC[C@H]1C(=O)NNC(N)=O [Goserelin, goserelin acetate, reference compound], the “Binding Force” value ([3]; U-87 MG) is reported as 29.88 ± 2.34 pN, the “Binding Probability” value ([3]; U-87 MG) is reported as 4.4 ± 0.94% and the koff ([3]; U-87 MG) is reported as 0.68 ± 0.08 s⁻¹. For the same molecule, the “Binding Force” value ([3]; UP-007) was 34.00 ± 15.5 pN, the “Binding Probability” value ([3]; UP-007) was 7.48 ± 0.76% and the koff ([3]; UP-007) was 1.54 ± 0.12 s⁻¹. The “Binding Probability … to U-87 MG cells” value (GnRH-R on U-87 MG cells; [9]) was 3.8% and the “Binding Probability … to U-87 MG cells” value (GnRH-R on U-87 MG cells; [10]) was 16.2%.

For CC(=O)O[C@H]1C(=O)[C@@]2(C)[C@H]([C@H](OC(=O)c3ccccc3)[C@]3(O)C[C@H](OC(=O)[C@H](O)[C@@H](NC(=O)c4ccccc4)c4ccccc4)C(C)=C1C3(C)C)[C@]1(OC(C)=O)CO[C@@H]1C[C@@H]2O [PAX, Paclitaxel, reference compound], the Papp A→B at 50 μg mL^−1 (in vitro) was 0.19 ×10⁻⁶ cm/s, the “% release from 3D printed bioink” value ([7]; 0 minutes) was 0% and the “% release from 3D printed bioink” value ([7]; 1 minutes) was 13.1 ± 15.6%. The “% release from 3D printed bioink” value ([7]; 5 minutes) was 13.7 ± 5.6%, the “% release from 3D printed bioink” value ([7]; 10 minutes) was 18.0 ± 10.6% and the “% release from 3D printed bioink” value ([7]; 15 minutes) was 10.7 ± 2.3%. The “% release from 3D printed bioink” value ([7]; 30 minutes) was 11.8 ± 5.2%, the “% release from 3D printed bioink” value ([7]; 45 minutes) was 13.7 ± 8.4% and the “% release from 3D printed bioink” value ([7]; 60 minutes) was 20.7 ± 9.6%. The “% release from 3D printed bioink” value ([7]; 90 minutes) was 24.6 ± 5.1%, the “% release from 3D printed bioink” value ([7]; 120 minutes) was 26.9 ± 9.4% and the “% release from 3D printed bioink” value ([7]; 240 minutes) was 19.0 ± 10.9%. The “% release from 3D printed bioink” value ([7]; 360 minutes) was 24.8 ± 7.3%, the “% release from 3D printed bioink” value ([7]; 1110 minutes) was 28.0 ± 11.4% and the “% release from 3D printed bioink” value ([7]; 1440 minutes) was 30.2 ± 9.8%. For the same molecule, the “% release from 3D printed bioink” value ([7]; 2760 minutes) was 37.1 ± 7.2%, the solubility (physchem; aqueous buffer) was 0.92 ± 1.35 µg/mL (≈ 1.08 µM) and the solubility (physchem; aqueous with cosolvent or surfactant or cyclodextrin) was 29.3 ± 3.63 µg/mL (≈ 34.3 µM).
